From US8765920B2, “Tyrosine bioconjugation through aqueous Ene-like reactions” (priority 2009, dated 2014)

Assay: Stability study of modified p-cresol under thermal conditions
Format: physicochemical
Conditions: 120° C. for 1 h
Protocol: Compound 4, the product of the reaction of p-cresol and PTAD, was subjected to both strongly acidic and basic conditions for 24 hours at room temperature or high temperature (120° C.) for 1 hr. […] These conditions are extremely harsh for a peptide or protein.
The relative stability of the C—N bond formed in the products was studied using p-cresol as a model phenol. As shown in Scheme 11, p-cresol was reacted with PTAD in tetrahydrofuran in the presence of sodium hydride to provide adduct in 75% isolated yield. Compound 8f was subjected to both strong acidic and basic conditions for 24 hours at room temperature or high temperature (120° C.) for 1 h.
Compound 4 (4.00 mg, 0.0141 mmol) was heated at 120° C. for 1 h according to the literature. The recovery of 4 was 4.00 mg (quant.).
Compound 23 (4.00 mg, 0.0141 mmol) was heated at 120° C. for 1 h according to literature. The recovery of 23 was 4.00 mg (quant.).

## Cc1ccc(O)c(-n2[nH]c(=O)n(-c3ccccc3)c2=O)c1 [Compound 4, 1-(2-hydroxy-5-methylphenyl)-4-phenyl-1,2,4-triazolidine-3,5-dione]
  decomposition by 1H NMR after heating: wasn't detected
